# In ChEMBL document CHEMBL1129923, “Antiallergic activity of some novel oligopeptides related to immunoglobulin E” (1997):
# Square brackets hold non-standard residues; d marks the D form. Peptide text beside a SMILES is read from it. NMeA = CN[C@@H](C)C(=O)O
# Assays:
# Assay type in all cases: functional
# Rattus norvegicus [1] = assay: Tested for antiallergic activity by studying the protection of PCA (passive cutaneous anaphylaxis) after ip administration at a dose of 1.0 mg/kg in rats for four determinations; details: route intraperitoneal
# Rattus norvegicus [2] = assay: Tested for antiallergic activity by studying the protection of PCA (passive cutaneous anaphylaxis) after ip administration at a dose of 10.0 mg/kg in rats for four determinations; details: route intraperitoneal
# Rattus norvegicus [3] = assay: Tested for antiallergic activity by studying the protection of PCA (passive cutaneous anaphylaxis) after ip administration at a dose of 5.0 mg/kg in rats for four determinations; details: route intraperitoneal
# Rattus norvegicus [4] = assay: Effective dose required for inhibition of PCA at a compound concentration of 7.5 mg/kg po
# Rattus norvegicus [5] = assay: Tested for antiallergic activity by studying the protection of PCA (passive cutaneous anaphylaxis) after ip administration at a dose of 0.5 mg/kg in rats for four determinations; details: route intraperitoneal
# Rattus norvegicus [6] = assay: Tested for antiallergic activity by studying mast cell stabilising activity after ip administration at a dose of 2.5 mg/kg for five days in rats for four determinations; details: route intraperitoneal
# Rattus norvegicus [7] = assay: Tested for antiallergic activity by studying mast cell stabilising activity after ip administration at a dose of 0.5 mg/kg for five days in rats for four determinations; details: route intraperitoneal
# Rattus norvegicus [8] = assay: Tested for antiallergic activity by studying the protection of PCA (passive cutaneous anaphylaxis) after ip administration at a dose of 7.5 mg/kg in rats for four determinations; details: route intraperitoneal
# Rattus norvegicus [9] = assay: Tested for antiallergic activity by studying mast cell stabilising activity after ip administration at a dose of 0.1 mg/kg for five days in rats for four determinations; details: route intraperitoneal
# Rattus norvegicus [10] = assay: Tested for antiallergic activity by studying the protection of PCA (passive cutaneous anaphylaxis) after ip administration at a dose of 2.5 mg/kg in rats for four determinations; details: route intraperitoneal
# Rattus norvegicus [11] = assay: Tested for antiallergic activity by studying mast cell stabilising activity after ip administration at a dose of 0.25 mg/kg in rats for four determinations; details: route intraperitoneal
# Rattus norvegicus [12] = assay: Tested for antiallergic activity by studying mast cell stabilising activity after ip administration at a dose of 1.0 mg/kg for five days in rats for four determinations; details: route intraperitoneal
# Rattus norvegicus [13] = assay: Tested for antiallergic activity by studying mast cell stabilising activity after ip administration at a dose of 0.2 mg/kg for five days in rats for four determinations; details: route intraperitoneal
# Rattus norvegicus [14] = assay: Effective dose required for protection of mast cells using mast cell stabilising assay at a compound concentration of 7.5 mg/kg po
# Rattus norvegicus [15] = assay: Tested for antiallergic activity by studying the protection of PCA (passive cutaneous anaphylaxis) after ip administration at a dose of 1 mg/kg in rats for four determinations; details: route intraperitoneal
# Rattus norvegicus [16] = assay: Tested for antiallergic activity by studying mast cell stabilising activity after ip administration at a dose of 50 mg/kg in rats for four determinations; details: route intraperitoneal
# Rattus norvegicus [17] = assay: Tested for antiallergic activity by studying the protection of PCA (passive cutaneous anaphylaxis) after ip administration at a dose of 50 mg/kg in rats for four determinations; details: route intraperitoneal
compound,measurement,setting,value
C[C@H](N)C(=O)N[C@@H](CC(=O)O)C(=O)N[C@@H](CO)C(=O)N[C@@H](CC(=O)O)C(=O)NCC(=O)N[C@@H](CCCCN)C(=O)O,Protection,Rattus norvegicus [1],52%
same,Protection,Rattus norvegicus [2],89%
same,Protection,Rattus norvegicus [3],75%
same,ED50,Rattus norvegicus [4],0.9 mg/kg
same,Protection,Rattus norvegicus [5],44%
same,Protection,Rattus norvegicus [6],79%
same,Protection,Rattus norvegicus [7],47%
same,Protection,Rattus norvegicus [8],86%
same,Protection,Rattus norvegicus [9],34%
same,Protection,Rattus norvegicus [10],67%
same,Protection,Rattus norvegicus [11],64%
same,Protection,Rattus norvegicus [12],72%
same,Protection,Rattus norvegicus [13],41%
same,ED50,Rattus norvegicus [14],3 mg/kg
same,Protection,Rattus norvegicus [15],75%
C[C@@H](N)C(=O)N[C@@H](CC(=O)O)C(=O)N[C@@H](CO)C(=O)N[C@@H](CC(=O)O)C(=O)NCC(=O)N[C@@H](CCCCN)C(=O)O,Protection,Rattus norvegicus [11],61%
same,Protection,Rattus norvegicus [15],64%
CN[C@@H](C)C(=O)N[C@@H](CC(=O)O)C(=O)N[C@@H](CO)C(=O)N[C@@H](CC(=O)O)C(=O)NCC(=O)N[C@@H](CCCCN)C(=O)O (H-[NMeA]DSDGK-OH),Protection,Rattus norvegicus [11],60%
same,Protection,Rattus norvegicus [15],67%
O=C([O-])c1cc(=O)c2c(OCC(O)COc3cccc4oc(C(=O)[O-])cc(=O)c34)cccc2o1.[Na+].[Na+] [CROMOLYN SODIUM],Protection,Rattus norvegicus [16],84%
same,Protection,Rattus norvegicus [17],77%
H-ADSDGK-NH2,Protection,Rattus norvegicus [11],61%
same,Protection,Rattus norvegicus [15],68%
H-AESDGK-OH,Protection,Rattus norvegicus [11],63%
same,Protection,Rattus norvegicus [15],45%
H-AGSDGK-OH,Protection,Rattus norvegicus [1],57%
same,Protection,Rattus norvegicus [2],90%
same,Protection,Rattus norvegicus [3],77%
same,ED50,Rattus norvegicus [4],0.6 mg/kg
same,Protection,Rattus norvegicus [5],47%
same,Protection,Rattus norvegicus [6],87%
same,Protection,Rattus norvegicus [7],70%
same,Protection,Rattus norvegicus [8],88%
same,Protection,Rattus norvegicus [9],39%
same,Protection,Rattus norvegicus [10],69%
same,Protection,Rattus norvegicus [11],78%
same,Protection,Rattus norvegicus [12],80%
same,Protection,Rattus norvegicus [13],50%
same,ED50,Rattus norvegicus [14],1 mg/kg
same,Protection,Rattus norvegicus [15],78%
